The subject of data set [1] is HIV-1IIIB. Nature of the data set: Syncytia inhibition assay (HIV-1IIIB infected C8166 cells). To be noted: for TI (in vitro therapeutic index, CC50 value/EC50 value): CC50 in C8166 cells / EC50 syncytia inhibition; for EC50: HIV-1IIIB infected C8166 cells, 72 h, means of two separate experiments, read-out: EC50 (50% effective concentration, reduces syncytia formation by 50%). The data set is classed as cell-based. The protocol:
Target compounds 6–16 were evaluated for their inhibitory activity against HIV-1 replication in acutely infected C8166 cells in vitro according to the previously described method, and AZT was used as a positive control. The assay results of the target compounds are presented in Table 1 and Table 2, expressed as CC50, EC50 and therapeutic index (TI).
The syncytia inhibition assay was applied by counting syncytia which were formed by HIV-1IIIB infected C8166 cells. Briefly, HIV-1IIIB supernatant and C8166 cells were seeded in a 96-well plate with different concentration of compounds. The plate was incubated in a 37 °C, 5% CO2 incubator for 72 h. Syncytia were counting under an inverted microscope and 50% effective concentration (EC50) was calculated. Therapeutic index (TI) was calculated by the ratio of CC50/EC50.

The nature of data set [2]: Cytotoxicity assay (MTT). The data set is classed as cell-based. To be noted: human; C8166 cells, MTT, 72 h; means of two separate experiments; read-out: CC50 (50% cytotoxic concentration). On the procedure:
The cytotoxicty assay was performed by 3-(4,5-dimethylthiazol-2-yl)-2,5-diphenyl tetrazoliumbromide (MTT) method. Briefly, 100 μL 4 × 10^4 C8166 cells were seeded each well with 100 μL of different concentrations of compounds in a 96-well plate. The plate was incubated 72 h at 37 °C, 5% CO2 incubator. MTT (20 μL, 5 mg/mL) was added to each well and the plate was incubated at 37 °C for 4 h. Supernatant (100 μL) was discarded and 20% SDS-50% DMF (100 μL) was added. The plates were read at 570/630 nm by a Bio-Tek Elx 800 reader (Bio-Tek Instruments, Inc., Winooski, VT, USA). The 50% cytotoxic concentration (CC50) was calculated.

[3] abbreviates: Human immunodeficiency virus 1, C8166, 72 h.

Where two headings read alike, the source gives them in different places.

For `O=C1C2C(c3ccc(O)cc3O)=NN(c3ccc(F)cc3)C2C(=O)N1CCc1ccc(F)cc1` (stereo not shown) [9a, 3-(2,4-Dihydroxyphenyl)-1-(4-fluorophenyl)-5-[2-(4-fluorophenyl)ethyl]-3a,6a-dihydro-1H-pyrrolo[3,4-c]pyrazole-4,6-dione], the “TI (in vitro therapeutic index, CC50 value/EC50 value)” value in data set [1] is on record as 4.91. In data set [1] (setting [3]), the EC50 is 35.3 µM. Further, in data set [2], the CC50 at 72 h is 173 µM.
For `COc1cccc(C2=NN(c3ccc(F)cc3)C3C(=O)N(CCc4ccc(Cl)cc4)C(=O)C23)c1O` (stereo not shown) [16c, 5-[2-(4-Chlorophenyl)-ethyl]-1-(4-fluorophenyl)-3-(2-hydroxy-3-methoxyphenyl)-3a,6a-dihydro-1H-pyrrolo[3,4-c]pyrazole-4,6-dione], the “TI (in vitro therapeutic index, CC50 value/EC50 value)” value in data set [1] is 6.73. In addition, the EC50 in data set [1] (setting [3]) was 10.4 µM. Also, the CC50 at 72 h in data set [2] stood at 70.1 µM.
The corresponding values for `COc1cccc(C2=NN(c3ccc(Cl)cc3)C3C(=O)N(CCc4ccc(F)cc4)C(=O)C23)c1O` (stereo not shown) [15c, 1-(4-Chlorophenyl)-5-[2-(4-fluorophenyl)ethyl]-3-(2-hydroxy-3-methoxyphenyl)-3a,6a-dihydro-1H-pyrrolo[3,4-c]pyrazole-4,6-dione] are 6.52, 25.5 µM and 166 µM.
Regarding `COc1cccc(C2=NN(c3ccc(F)cc3)C3C(=O)N(CCc4ccc(F)cc4)C(=O)C23)c1O` (stereo not shown) [9g, 1-(4-Fluorophenyl)-5-[2-(4-fluorophenyl)ethyl]-3-(2-hydroxy-3-methoxyphenyl)-3a,6a-dihydro-1H-pyrrolo[3,4-c]pyrazole-4,6-dione], in data set [1], the “TI (in vitro therapeutic index, CC50 value/EC50 value)” value is given as above 105.26 and the EC50 is 3.98 µM. In addition, in data set [1] (setting [3]), the EC50 was below 5 µM. The CC50 at 72 h in data set [2] is above 419 µM.
`COc1cccc(C2=NN(c3ccc(F)cc3)C3C(=O)N(CCc4ccc(F)cc4)C(=O)C23)c1OC` (stereo not shown) [12a, 3-(2,3-Dimethoxyphenyl)-1-(4-fluorophenyl)-5-[2-(4-fluorophenyl)ethyl]-3a,6a-dihydro-1H-pyrrolo[3,4-c]pyrazole-4,6-dione]: in data set [1], the “TI (in vitro therapeutic index, CC50 value/EC50 value)” value was above 36.56. Also, the EC50 in data set [1] (setting [3]) worked out at 11.1 µM. In addition, the CC50 at 72 h in data set [2] was above 407 µM.
The corresponding values for `COc1cc([N+](=O)[O-])cc(C2=NN(c3ccc(F)cc3)C3C(=O)N(CCc4ccc(F)cc4)C(=O)C23)c1O` (stereo not shown) [compound 11, 1-(4-Fluorophenyl)-5-[2-(4-fluorophenyl)ethyl]-3-(2-hydroxy-3-methoxy-5-nitrophenyl)-3a,6a-dihydro-1H-pyrrolo[3,4-c]pyrazole-4,6-dione] are 2.15, 41.9 µM and 90.3 µM.
The like results for `COc1ccc(C2=NN(c3ccc(F)cc3)C3C(=O)N(CCc4ccc(F)cc4)C(=O)C23)c(O)c1` (stereo not shown) [10a, 1-(4-Fluorophenyl)-5-[2-(4-fluorophenyl)ethyl]-3-(2-hydroxy-4-methoxyphenyl)-3a,6a-dihydro-1H-pyrrolo[3,4-c]pyrazole-4,6-dione] were, in that order, 2.51, 8.52 µM and 21.4 µM.
The like results for `COc1cccc(C2=NN(c3ccccc3)C3C(=O)N(CCc4ccc(F)cc4)C(=O)C23)c1O` (stereo not shown) [15h, 5-[2-(4-Fluorophenyl)ethyl]-3-(2-hydroxy-3-methoxyphenyl)-1-phenyl-3a,6a-dihydro-1H-pyrrolo[3,4-c]pyrazole-4,6-dione] were, in that order, above 15.22, 28.6 µM and above 436 µM.
For `COc1c(O)cccc1C1=NN(c2ccc(F)cc2)C2C(=O)N(CCc3ccc(F)cc3)C(=O)C12` (stereo not shown) [7a, 1-(4-Fluorophenyl)-5-[2-(4-fluorophenyl)ethyl]-3-(3-hydroxy-2-methoxyphenyl)-3a,6a-dihydro-1H-pyrrolo[3,4-c]pyrazole-4,6-dione], the “TI (in vitro therapeutic index, CC50 value/EC50 value)” value in data set [1] turned out to be 7.29. Moreover, the EC50 in data set [1] (setting [3]) was 5.37 µM. Besides, the CC50 at 72 h in data set [2] came to 39.1 µM.
